Data as given in patent US20060265776A1, “Viability” (priority 2003, published 2006).
“Also recorded” adds a separate entry of the source.

Experiments:
[1] = tested on: Black Mexican sweet corn cells; test: Cell viability of corn suspension cells; type: cell-based, Zea mays; settings: 1 mM ATP, 1 mM AMP-PCP, 100 units/mL apyrase, 200 units/mL hexokinase; 100 mM glucose in culture
[2] = tested on: Arabidopsis thaliana cell suspension cultures; type: cell-based
Experimental: A. thaliana cell cultures were grown as described in example 1. Aliquots of the cell suspension (1.5 mL) were treated with a final concentration of 0, 20, 50, or 100 units/mL of apyrase. […] The dead cells had become buoyant and adhered to the walls of the vials, forming a ring just above the edge of the swirling medium. The ring of cells was sometimes dislodged and fell into the medium, resulting in apyrase-treated cultures having flakes of dead cells at the bottom of the vials.
To quantify the effect of apyrase on cell viability, the ability of the cells to grow and multiply subsequent to treatment was measured after diluting the cultures by over 30 times in fresh medium not containing any additives. This was achieved by transferring the cells treated for 3 days to 50 mL of fresh growth medium and allowing them to grow for a further 4 days. At the end of this period, triplicate 1 mL aliquots were sampled from the cultures and the volume of the cells was measured and expressed as a percentage of the culture volume. The method used to determine the packed cell volume was as follows: 1 mL cell culture aliquots were placed in 1.5 mL microfuge tubes and the cells gently compacted by centrifuging (1000 rpm., 10 minutes) in a swing-out rotor (Grundrotor 11030; Sigma laborzentrifugen GmbH, Oestrode, Germany). The level of the cells was marked on the wall of the tube and the volume of cells determined by measuring the volume of water needed to fill the tube to the marked level. The packed cell volume was expressed as the volume occupied by cells as a percentage of 1000 μL.
In each case the error bars represent the standard deviation.

[3] = tested on: bean plants; test: Leaf infiltration, bean; type: in vivo, Phaseolus vulgaris; settings: apyrase, hexokinase; 100 mM glucose
Experimental: (§1) Tobacco (Nicotiana tabacum), Arabidopsis, and bean (Phaseolus vulgaris) plants were sown in soil and raised in a growth cabinet with a 16-hour photoperiod at 20° C. and 8 hours of darkness at 15° C. The relative humidity was maintained at 60% and the photon flux density was 250 μmolm^−2 s^−1. […] Only the cotyledons of bean plants were treated. The abaxial surface of a small zone of leaf tissue was treated by infiltrating the apoplast with the solution using a syringe and hypodermic needle. The three test solutions had the following concentrations of either: 0.5 units/μL apyrase, 1.85 units/μL hexokinase plus 100 mM glucose, or 1-5 mM AMP-PCP (pH 6.5).

[4] = tested on: Arabidopsis thaliana cell suspension cultures; test: Viability staining with fluorescein diacetate and propidium iodide; type: cell-based; settings: apyrase-treated cultures, 3 days
Experimental: The inventors decided to use viability staining to confirm cell death in these cell cultures. To achieve this, […] aliquots were removed from the cultures and the cells resuspended in 0.2M CaCl2 after removal of the growth medium. The aliquots were doubly-stained by incubating for 5 minutes with a final concentration of 25 μg/mL fluorescein diacetate [0.5% (w/v) stock solution in acetone] and 50 μg/mL propidium iodide [10 mg/mL stock solution in phosphate-buffered saline pH 7.4]. […] The viable cells had also excluded propidium iodide, which is non-permeative and can only cross membranes of dead or dying cells. Dead cells had taken up propidium iodide, which binds to DNA, resulting in nuclei emitting a very intense red fluorescence.

[5] = tested on: tobacco leaves; test: Leaf infiltration, tobacco; type: in vivo, Nicotiana tabacum
Experimental: as §1

[6] = tested on: Tobacco (Nicotiana tabacum), Arabidopsis, and bean (Phaseolus vulgaris) plants; test: Leaf infiltration of extracellular ATP depletion systems, whole plants; type: in vivo; settings: 0.5 units/μL apyrase, 1.85 units/μL hexokinase plus 100 mM glucose, 1-5 mM AMP-PCP (pH 6.5); ATP (pH 6.5)
Experimental: as §1
The concentrations used were the same as defined above unless stated otherwise.

Substance: apyrase
- viability of corn cells [1]: caused significant cell death
- loss in viability [2]: over 80%
- cell death seen in cultures ([2]; 20, 50 or 100 units/mL apyrase, incubated for 3 days): showed a significant frequency of cell death
- cell viability with increasing concentration (dose-response), in words ([2]; apyrase 0-100 units/mL, hexokinase 0-200 units/mL with 100 mM glucose, AMP-PCP 0-1.5 mM): progressive decrease in cell viability
- necrotic lesions on bean leaves [3]: development of necrotic lesions on leaves
- dead cells by viability staining [4]: significantly high proportion of cells in the apyrase-treated cell cultures was dead
- local tissue death after infiltration of tobacco leaves ([5]; 1 mM AMP-PCP, 1 mM ATP, apyrase, hexokinase plus glucose): development of localised necrotic lesions
- state of tobacco plant after treatment of a leaf ([5]; 5 mM AMP-PCP or equivalent amount of ATP, after 4 days): Comparable results
- necrotic lesions after local leaf infiltration [6]: development of necrotic lesions in the area where the application was made within 2 days of treatment; also recorded: localised necrotic lesions
